Earlier results as cited in patent publication EP4302832A1, “PALBOCICLIB FORMULATION CONTAINING GLUCONO DELTA LACTONE” (Lotus Pharmaceutical Co., Ltd., priority 2022, dated 2024).
Like-named read-outs stand apart in the source and are kept apart here.

Legend:
[1] = low pH (2.1-4.5)

- pKa (the pyridine nitrogen): ~4.1
- pKa (the secondary piperazine nitrogen): approximately 7.3
- solubility [1]: water soluble
Compound: CC(=O)c1c(C)c2cnc(Nc3ccc(N4CCNCC4)cn3)nc2n(C2CCCC2)c1=O [Palbociclib, 6-acetyl-8-cyclopentyl-5-methyl-2-(5-piperazin-1-yl-pyridin-2-ylamino)-8H-pyrido[2,3-d]-pyrimidin-7-one]
